Results from patent US6461997B1, “Triazole sulfones having herbicidal activity” (Monsanto Technology LLC, priority 1999, dated 2002).

How the values were obtained:
SOLNI (black nightshade) = assay: Pre-emergence herbicidal activity, warm season; type: in vivo, Solanum nigrum; conditions: GR80 = lowest tested rate (300, 100, 30, 10 g/ha) with 80% or greater inhibition; approx. 14 days after treating; 30/21° C.
In short: (§1)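 GR80 values derive from percent inhibition relative to untreated plants, read roughly 14 days after sowing and pre-emergence soil-surface treatment (compound in 50:50 acetone/water; rates typically 10, 30, 100, 300 g/ha). Warm-season weeds grew at 30/21° C day/night, cool-season ones at 18/13° C; an asterisk marks activity without reaching 80% at the highest rate.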

POROL (common purslane) = assay: Pre-emergence herbicidal activity, warm season; type: in vivo, Portulaca oleracea; conditions: GR80 = lowest tested rate (300, 100, 30, 10 g/ha) with 80% or greater inhibition; approx. 14 days after treating; 30/21° C.
In short: as §1

DATST (jimsonweed) = assay: Pre-plant incorporated (PPI) herbicidal activity, warm season; type: in vivo, Datura stramonium; conditions: for Percent inhibition DATST: PPI application
In short: (§2)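 Pots are filled with topsoil, seeded, and topped with cover soil carrying the sprayed, mixed-in compound. After 0.64 cm overhead irrigation, growth proceeds at 30/21° C or 18/13° C day/night with mist or subirrigation. Scoring is percent inhibition relative to untreated controls about two weeks on.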

[1] = test system: VERPE (creeping speedwell); assay: Pre-plant incorporated (PPI) herbicidal activity, cool season; type: in vivo, Veronica persicaria; conditions: for Percent inhibition VERPE: weed, PPI application
In short: as §2

STEME (common chickweed) = assay: as above; type: in vivo, Stellaria media; conditions: pre-plant incorporated; lowest tested rate with 80% or greater inhibition; about 14 days
In short: as §2

[2] = test system: AGSST (creeping bentgrass); assay: as above; type: in vivo, Agrostis stolonifera; conditions: for Percent inhibition AGSST: weed, PPI application
In short: as §2

AVEFA (wild oat) = assay: Post-emergence herbicidal activity, cool season; type: in vivo, Avena fatua; conditions: abraded plants sprayed at 300, 100, 30 and 10 g/ha; about 14 days after treatment
In short: (§3)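 Seeds sown in topsoil, covered with 50% topsoil/50% Rediearth™, subirrigated. At 9 to 14 days, foliage abraded, then sprayed at 300, 100, 30 or 10 g/ha in acetone/water 50:50. Plants held at 18/13° C. day/night, rated for % inhibition at ~14 days, GR80 assigned.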

[3] = test system: AEGCY (jointed goatgrass); assay: Post-emergence herbicidal activity, cool season; type: in vivo, Aegilops cylindrica; conditions: abraded plants sprayed at 300, 100, 30 and 10 g/ha; about 14 days after treatment
In short: as §3

[4] = test system: AGRRE (quackgrass (seedling)); assay: Post-emergence herbicidal activity, cool season; type: in vivo, Elymus repens; conditions: abraded plants sprayed at 300, 100, 30 and 10 g/ha; about 14 days after treatment
In short: as §3

[5] = pre-plant incorporated, lowest tested rate with 80% or greater inhibition, about 14 days

In the case of C=C(CC(F)(F)S(=O)(=O)c1ncn(C(=O)N(CC)CC)n1)C[Si](C)(C)C [Example 20], the “Pre-emergence activity (GR80) SOLNI” value (SOLNI (black nightshade)) was 100 g/ha, the “Pre-emergence activity (GR80) POROL” value (POROL (common purslane)) was 300 g/ha and the “Percent inhibition DATST” value (DATST (jimsonweed); 10 g/ha) was 0%. For the same compound, the “Percent inhibition DATST” value (DATST (jimsonweed); 30 g/ha) was 0%, the “Percent inhibition DATST” value (DATST (jimsonweed); 100 g/ha) was 0% and the “Percent inhibition DATST” value (DATST (jimsonweed); 300 g/ha) was 20%. The “Percent inhibition DATST” value (DATST (jimsonweed); 900 g/ha) was 60%, the “PPI activity (GR80) DATST” value (DATST (jimsonweed); pre-plant incorporated, GR80 = lowest tested rate with 80% or greater inhibition, approx. 14 days after treating, 30/21° C.) was 300 g/ha and the “PPI activity GR80, VERPE” value [1, 5] was 30 g/ha. For the same compound, the “Percent inhibition VERPE” value ([1]; 10 g/ha) was 0%, the “Percent inhibition VERPE” value ([1]; 30 g/ha) was 90% and the “Percent inhibition VERPE” value ([1]; 100 g/ha) was 50%. For the same compound, the “Percent inhibition VERPE” value ([1]; 300 g/ha) was 90%, the “Percent inhibition VERPE” value ([1]; 900 g/ha) was 95% and the “PPI activity GR80, STEME” value (STEME (common chickweed)) was “* (activity observed, at least at highest rate, but <80% inhibition)”. The “PPI activity GR80, AGSST” value [2, 5] was 30 g/ha, the “Percent inhibition AGSST” value ([2]; 10 g/ha) was 0% and the “Percent inhibition AGSST” value ([2]; 30 g/ha) was 10%. For the same compound, the “Percent inhibition AGSST” value ([2]; 100 g/ha) was 85%, the “Percent inhibition AGSST” value ([2]; 300 g/ha) was 75% and the “Percent inhibition AGSST” value ([2]; 900 g/ha) was 100%. For the same compound, the “Post-emergence activity GR80, AVEFA” value (AVEFA (wild oat)) was “[empty]”, the “Post-emergence activity GR80, AEGCY” value [3] was “[empty]” and the “Post-emergence activity GR80, AGRRE” value [4] was “[empty]”.
